Here are results for one molecule from patent publication US20080051454A1, “Compositions and methods for transient receptor potential vanilloid (TRPV) channel mediated treatments” (The Board of Trustees Operating Michigan State University, priority 2006, published 2008).

For test [1], the system named is rats fed either a high or normal sodium diet. The conditions noted are these: cited from earlier work.
In test [2] the test system is mesenteric arteries. Briefly: NADA-induced CGRP release from isolated mesenteric arteries (radioimmunoassay). Set-up: species or system rat. The conditions noted are these: CAPZ 10 μM pretreatment, NADA 10 μM; NS or HS. The method, then:
After an 1 h stabilization period, the arteries were transferred to another chamber containing 1 ml of Krebs's solution with the addition of 0.05% BSA and drugs including NADA (1 or 10 μM) or CAPZ (10 μM). The tissues were removed after 20 min incubation, and the solutions were collected and evaporated. […] At the end of the experiment, the tissues were blotted and weighted. […] The results are expressed as pg of milligram of tissues.
This antibody has 100% cross-reactivity with rat a-CGRP and 79% with β-CGRP. There is no cross-reactivity with rat amylin, calcitonin, somatostatin, or substance P. The assay was performed following the manufacturer's protocol.

The subject of test [3] is mesenteric arteries. Description: MethA-induced CGRP release from isolated mesenteric arteries (radioimmunoassay). The conditions noted are these: CAPZ 10 μM, MethA 10 μM; NS or HS. More on the design: species or system rat. The method, then: The arteries were dissected free of fat and connective tissues.
The preparations were incubated in a Krebs' solution of the following compositions (in mM): NaCl 119, NaHCO3 25, KH2PO4 1.2, MgSO4 1.5, CaCl2 2.5, KCl 4.7, and D-glucose 11. The Krebs' solution was maintained at 37 °C and gassed with 95% O2 and 5% CO2. After 1 h stabilization period, the arteries were transferred to another chamber containing 1 ml of Krebs' solution with the addition of 0.05% BSA and drugs. […] The tissues were removed after 20 min incubation, and the solutions were collected. At the end of the experiment, the tissues were blotted and weighted.
This antibody has 100% cross-reactivity with rat α-CGRP and 79% with rat β-CGRP. There is no cross-reactivity with rat amylin, calcitonin, somatostatin, or substance P.

Test [4] concerns Wistar rats fed a normal-salt (NS) or high-salt (HS) diet for 10 days. Description: MAP and HR responses to i.v. bolus NADA with or without antagonists in conscious rats. The test is classed as in vivo, rat. Conditions: for prolonged depressor effect of NADA (decrease in MAP) after antagonist: NADA 4 mg/kg after CAPZ 3 mg/kg, CGRP8-37 infusion or SR141716A 3 mg/kg. The text has this:
In brief: Wistar rats were fed a normal (NS, 0.4%) or high (HS, 4%) sodium diet for 10 days, then artery and vein were cannulated for measurement of mean arterial pressure (MAP) or for injection of drugs and collection of plasma.
Animal Preparation: Male Wistar rats (7 weeks old, Charles River Laboratory, Wilmington, Mass.) were housed in the animal facility for 1 week before the experiment. Rats were grouped randomly and pair-fed a NS (0.4% of Na^+ by weight) or HS (4% of Na^+ by weight) diet for 10 days. The rat chow was purchased from Harlan Teklad Diets (Madison, Wis.). Drinking water was available ad libitum throughout the experiment. All protocols were in accordance with the National Institutes of Health Guidelines for the Care and Use of Laboratory Animals.
Surgical Preparation Rats were anesthetized with ketamine and xylazine (80 and 4 mg/kg intraperitoneally, respectively) for cannulation or with urethane (1.5 g/kg intraperitoneally) for capsaicin administration. The left jugular vein, carotid and femoral artery were cannulated under anesthesia for injection of drugs or monitoring of mean arterial pressure (MAP) and heart rate (HR).
Three hours after surgery, baseline MAP and its response to the above-mentioned drugs were obtained with the rats fully awake and unrestrained [Wang et al., Am J Physiol 2004; 287:H1868-H[874]. NADA was injected in increasing doses (1, 4, and 10 mg/kg intravenous bolus) in 3 subgroups of rats (each group for each dose). To determine the role of TRPV1 and CB 1 receptor in NADA-induced hypotension, NADA (4 mg/kg) was injected 10 minutes or 20 minutes after intravenous injection of CAPZ (3 mg/kg) or SR141716A (3 mg/kg), respectively.
To examine the effect of CGRP8-37 on NADA-induced hypotension, CGRP8-37 was intravenously administered at the rate of 1 mg/kg/min for 2 minutes followed by injection at the rate of 0.5 mg/kg/min for 15 minutes. NADA (4 mg/kg) was injected 1 minute after CGRPs-37 administration. The effectiveness of the dose and time frame for CGRP8-37 injection was verified by blockade of the hypotensive response to capsaicin (30 μg/kg) (n=5).

For test [5], the system named is TRPV1−/− hearts. Briefly: Preconditioning (PC) protection against I/R in Langendorff hearts with receptor antagonists, TRPV1-null. The conditions noted are these: CAPZ 10^−7 M, CGRP8-37 10^−6 M, RP67580 10^−7 M. Set-up: species or system mouse. The method, then:
Male TRPV1 gene knockout (TRPV1-/-) strain B6.129S[…][…]^tm1Jul and matching control wild type (WT) strain C57BL/6J mice were used (Jackson Laboratory, Bar Harbor, Me.). Mice were heparinized (500 U/kg i.p.) and anesthetized with pentobarbital sodium (50 mg/kg i.p.). […] The distal end of the catheter was connected to a […] Performance Analyzer via a pressure transducer. Coronary flow (CF) was continuously measured using an ultrasonic flow probe placed in the aortic perfusion line. Hearts were paced at 400 bpm except during ischemic PC and sustained global ischemia to avoid inducing excessive ventricular tachyarrhythmia during reperfusion, and pacing was reinitiated 2 minutes after reperfusion. Left ventricular developed pressure (LVDP, peak systolic minuses LVEDP) and LV peak positive […]) during isovolumic contraction were used as indices of LV systolic function; LVEDP and the peak negative […] used as indices of LV diastolic function. […] Non-preconditioned hearts were time-matched perfused with the same duration as that of preconditioned hearts. Group 1: Controls. As normal controls (nonischemic), WT and TRPV1-/- hearts were perfused for 130 minutes. For I/R controls, WT and TRPV1-/- hearts were first perfused with Krebs-Henseleit buffer for 55 min (time-matched perfusion of the equilibration period plus the PC period), and subsequently subjected to 30 minutes of no-flow normothermic global ischemia followed by 40-minutes of reperfusion. Group 2: PC. […] The hearts were subjected to 30 minutes of no-flow normothermic global ischemia followed by 40-minutes of reperfusion as that of I/R control groups. Group 3: PC plus capsazepine (CAPZ). […] Two additional concentrations of CAPZ, 10^-6M and 10^-8 M, were used in WT hearts. An additional drug control was added. After a 20-minute equilibration period, WT hearts were perfused with CAPZ (10^-7 M) for 10 minutes without PC, followed by perfusion with Krebs-Henseleit buffer for 25 minutes (time-matched perfusion of the PC period) and then subjected to I/R. Group 4: […] […]

Molecules are shown by their SMILES.

On to `Oc1cc2c(cc1O)CN(C(=S)NCCc1ccc(Cl)cc1)CCC2` [CAPZ, N-[2-(4-Chlorophenyl)ethyl]-1,3,4,5-tetrahydro-7,8-dihydroxy-2H-2-benzazepine-2-carbothioamide], for which the “effect on capsaicin actions on plasma CGRP and MAP” value in test [1] (rat, in vivo) is recorded as “blocked”. In addition, the “pro-hypertensive effects of salt” value in test [1] (rats fed a high salt diet) is listed as “unmasked”. The “effect on NADA-induced CGRP release” value in test [2] was “blocked”. The “effect on MethA-induced CGRP release” value in test [3] is “blocked”. The “effect of antagonist on NADA-induced depressor effect” value in test [4] (NADA 4 mg/kg) is “abolished”. In addition, the “prolonged depressor effect of NADA (decrease in MAP) after antagonist” value is 7±2 mmHg in test [4] (HS diet) and 6±2 mmHg in test [4] (NS diet). For the same molecule, in test [5], the “effect on these parameters in TRPV1−/− hearts” value is reported as “no effect”.
